# How the values were obtained:
# Gp6 = biological target: T1, Gp6 (Mycobacterium phage L5, UniProt Q05278, L15P); test: Direct ESI-MS assay of carbohydrate binding; design: species or system mycobacteriophage L5; settings: for Association constants (Ka) for Gp6: 25° C., pH 7.2, direct ESI-MS assay
# T1 construct: pET-30a(+) vector-encoded N-terminal leader (additional residues up to the EcoRI site) (N); made in house; host or cells: E. coli BL21(DE3)
# Procedure: Chemically synthesized fragments of mycobacterial arabinans and phenolic glycolypids were used to test the carbohydrate binding ability of recombinant Gp6. Association constants (Ka) for Gp6 binding to carbohydrate ligands were measured using the direct electrospray ionization mass spectrometry (ESI-MS) assay. The assay is based on the direct detection and quantification of the abundance of ligand-bound and unbound protein ions in the gas phase. All binding measurements were carried out at 25° C. and pH 7.2 using a 9.4T ApexQe FTICR mass spectrometer (Bruker, Billerica, Mass.). ESI was performed in aqueous ammonium acetate (100 mM) solutions prepared from stock solutions of protein and oligosaccharide. The single chain variable fragment (scFv) of the monoclonal antibody Se155-4 was used as reference protein to distinguish specific from nonspecific ligand binding with the protein during the ESI-MS measurements.
# [1] = tested on: Mycobacterium avium subsp. paratuberculosis ATCC 19851; test: Cell binding assay: protein immobilized on gold surface, capture by SEM and fluorescence microscopy; settings: protein immobilized on gold surface, 20 μg/ml (Gp6 also 40 μg/ml)
# Excerpt: (§1) In order to assess mycophage and mycophage RBPs for their use as probes of MAP infection, Gp-10 and Gp-6 were immobilized using an established protocol (Singh et. al. Biosens. Bioelect. 26 131 (2010) and used for the specific bacterial capture. Gold Surfaces were modified by cysteamine hydrochloride followed by activation using 2% gluteraldehyde. The recombinant proteins Gp-10, Gp-6 and Gp-31 were immobilized over the surfaces in order to capture the host bacteria Mycobacterium avium subsp. paratuberculosis ATCC 19851 and Mycobacterium smegmatis mc^2155. Bacterial capture was confirmed by fluorescence microscopy and Scanning Electron Microscopy (SEM). Nonspecific attachment was prevented by using bovine serum albumin (BSA) as the blocking layer. A negative control was run in parallel where a similar gold surface was treated with all reagents, but they were not exposed to the recombinant phage proteins.
# (§2) Proteins were immobilized onto cysteamine covered gold surfaces that were activated with glutaraldehyde according to the previously described protocol where RBP samples were used instead of whole phage particles. Briefly, the gold substrates were fabricated using piranha cleaned silicon substrates by sputtering a 25 nm thick gold layer. The gold substrates were sonicated in acetone, isopropanol, ethanol and MilliQ (Millipore) water for 5 min each prior to their use (Branson Ultrasonics 1510, 40 kHz frequency). The gold substrates were incubated overnight at 40° C. in a 50 mM solution of cysteamine hydrochloride (Sigma-Aldrich). The cysteamine self assembled monolayer (SAM) substrates were modified by 2% glutaraldehyde (Sigma-Aldrich) for 1 hr at room temperature and washed twice in PBS. These modified substrates were incubated in a 20 μg/ml solution of Gp10 (or Gp6) in PBS overnight at […]. The negative control substrate was incubated in PBS only. To block nonspecific binding of bacteria, the substrates were incubated in 1 mg/ml of bovine serum albumin (Sigma-Aldrich) and were washed twice in PBS. The protein covered substrates were exposed to 10^9 cfu/ml of mycobacterial cells in PBS for 1 hr at room temperature. The immobilized surfaces were washed in 0.05 Tween 20 (Sigma-Aldrich) before analysis. For fluorescence microscopy, the bacterial cells were stained with 50 μM resazurin (Sigma-Aldrich) for 20 min before exposure to the substrates covered with the immobilized proteins.
# (§3) Bacterial cell binding to the gold surface covered with the immobilized protein was assessed as described previously. Scanning electron microscopy (SEM) and fluorescent microscopy (FM) were used to estimate the number of bacterial cells bound to the surfaces. The samples were fixed with 2% glutaraldehyde for 2 hrs at room temperature followed by a gradient of ethanol from 50% to 100% before SEM. Finally the samples were dried by nitrogen gas. SEM imaging was performed using a Hitachi S-4800/LEO 1430 microscope. Cells were prestained using 50 μM of resazurin stain (Sigma-Aldrich) for the FM-based binding assay. An Olympus IX81 microscope equipped with a FITC filter and a Roper Scientific Cool-Snaps HQ CCD Camera were Used to Record the FM Images. ImageJ Software (USA NIH) was used to analyze the microscopy images. Average numbers of cells bound to the surface are indicated on the basis of the assessment of the cell number, fields of view, and using 8 gold covered chips per test.
# [2] = tested on: Mycobacterium smegmatis mc^2155; test: as above; settings: protein immobilized on gold surface, 20 μg/ml
# Excerpt: as §1, §2, §3
# T1 sequence (Q05278 other isoform, or with tags, fused parts or gaps L15P): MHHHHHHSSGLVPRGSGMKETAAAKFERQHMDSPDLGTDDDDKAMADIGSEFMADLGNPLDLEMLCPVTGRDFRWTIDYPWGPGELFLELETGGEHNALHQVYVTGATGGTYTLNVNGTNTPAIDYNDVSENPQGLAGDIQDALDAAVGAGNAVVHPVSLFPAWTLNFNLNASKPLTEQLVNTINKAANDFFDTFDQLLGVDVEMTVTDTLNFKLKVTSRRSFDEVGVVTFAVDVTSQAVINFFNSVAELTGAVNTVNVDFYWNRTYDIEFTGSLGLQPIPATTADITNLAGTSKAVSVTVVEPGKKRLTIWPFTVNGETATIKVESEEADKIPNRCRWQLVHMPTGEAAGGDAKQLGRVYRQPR
Molecule,Kd (Gp6),also measured
"O=C(NCCCCCCCCO[C@H]1O[C@H](CO[C@H]2O[C@H](CO[C@H]3O[C@H](CO)[C@@H](O)[C@@H]3O[C@@H]3O[C@H](CO)[C@@H](O)[C@@H]3O)[C@@H](O[C@H]3O[C@H](CO)[C@@H](O)[C@@H]3O[C@@H]3O[C@H](CO)[C@@H](O)[C@@H]3O)[C@@H]2O)[C@@H](O)[C@@H]1O)C(F)(F)F [compound 3, β-Araf-(1→2)-α-Araf-(1→5)[β-Araf-(1→2)-α-Araf-(1→3)]-α-Araf-(1→5)-α-Araf-octyl-NHCOCF3]",278 µM,
"O=C(NCCCCCCCCO[C@H]1O[C@H](CO[C@H]2O[C@H](CO[C@H]3O[C@H](CO[C@H]4O[C@H](CO)[C@@H](O)[C@@H]4O)[C@@H](O)[C@@H]3O)[C@@H](O)[C@@H]2O)[C@@H](O)[C@@H]1O)C(F)(F)F [compound 8, α-Araf-(1→5)-α-Araf-(1→5)-α-Araf-(1→5)-a-Araf-octyl-NHCOCF3]",145 µM,
"O=C(NCCCCCCCCO[C@H]1O[C@H](CO[C@H]2O[C@H](CO[C@H]3O[C@H](CO)[C@@H](O)[C@@H]3O[C@@H]3O[C@H](CO)[C@@H](O)[C@@H]3O)[C@@H](O)[C@@H]2O)[C@@H](O)[C@@H]1O)C(F)(F)F [compound 4, β-Araf-(1→2)-α-Araf-(1→5)-α-Araf-(1→5)-α-Araf-octyl-NHCOCF3]",,Association constants (Ka) for Gp6 (Gp6): NB^3
"COc1ccc(O[C@@H]2O[C@@H](C)[C@H](O)[C@@H](O[C@@H]3O[C@@H](C)[C@H](O)[C@@H](O[C@@H]4O[C@@H](C)[C@@H](OC)[C@@H](OC)[C@@H]4OC)[C@H]3O)[C@H]2OC)cc1 [compound 10, 2,3,4-tri-O-CH3-α-Fucp-(1→3)-α-Rhap(1→3)-2-O-CH3-α-RhapOPMP]",1000 ± 500 µM,
"COc1ccc(OC2OC(C)C(O)C(OC3OC(C)C(O)C(O)C3O)C2OC)cc1 (stereo not drawn) [compound 15, α-Rhap-(1→3)-2-O-CH3-α-RhapOPMP]",,Association constants (Ka) for Gp6 (Gp6): NB^3
"O=C(NCCCCCCCCO[C@H]1O[C@H](CO[C@H]2O[C@H](CO[C@H]3O[C@H](CO)[C@@H](O)[C@@H]3O[C@@H]3O[C@H](CO[C@H]4O[C@H](CO)[C@@H](O)[C@H](O)[C@@H]4O[C@H]4O[C@H](CO)[C@@H](O)[C@H](O)[C@@H]4O[C@H]4O[C@H](CO)[C@@H](O)[C@H](O)[C@@H]4O)[C@@H](O)[C@@H]3O)[C@@H](O)[C@@H]2O)[C@@H](O)[C@@H]1O)C(F)(F)F [compound 9, α-Manp-(1→2)-α-Manp-(1→2)-α-Manp-(1→5)-β-Araf-(1→2)-α-Araf-(1→5)-α-Araf-(1→5)-α-Araf-octyl-NHCOCF3]",385 µM,
"O=C(NCCCCCCCCO[C@H]1O[C@H](CO[C@H]2O[C@H](CO[C@H]3O[C@H](CO)[C@@H](O)[C@@H]3O)[C@@H](O[C@H]3O[C@H](CO)[C@@H](O)[C@@H]3O)[C@@H]2O)[C@@H](O)[C@@H]1O)C(F)(F)F [compound 6, α-Araf-(1→5)-[α-Araf-(1→3)]-α-Araf-(1→5)-α-Araf-octyl-NHCOCF3]",417 µM,
"O=C(NCCCCCCCCO[C@H]1O[C@H](CO[C@H]2O[C@H](CO[C@H]3O[C@H](CO)[C@@H](O)[C@@H]3O[C@@H]3O[C@H](CO[C@H]4O[C@H](CO)[C@@H](O)[C@H](O)[C@@H]4O)[C@@H](O)[C@@H]3O)[C@@H](O)[C@@H]2O)[C@@H](O)[C@@H]1O)C(F)(F)F [compound 1, α-Manp-(1→5)-β-Araf-(1→2)-α-Araf-(1→5)-α-Araf-(1→5)-α-Araf-octyl-NHCOCF3]",256 µM,
"O=C(NCCCCCCCCO[C@H]1O[C@H](CO[C@H]2O[C@H](CO)[C@@H](O[C@H]3O[C@H](CO)[C@@H](O)[C@@H]3O[C@@H]3O[C@H](CO)[C@@H](O)[C@@H]3O)[C@@H]2O)[C@@H](O)[C@@H]1O)C(F)(F)F [compound 7, β-Araf-(1→2)-α-Araf-(1→3)-α-Araf-(1→5)-α-Araf-octyl-NHCOCF3]",909 µM,
"COc1ccc(O[C@@H]2O[C@@H](C)[C@H](O)[C@@H](O[C@@H]3O[C@@H](C)[C@H](O)[C@@H](O[C@@H]4O[C@@H](C)[C@@H](OC)[C@@H](O)[C@@H]4OC)[C@H]3O)[C@H]2O)cc1 [compound 11, 2,4-di-O-CH3-α-Fucp-(1→3)-α-Rhap(1→3)-α-Rhap-OPMP]",333 µM,
"O=C(NCCCCCCCCO[C@H]1O[C@H](CO[C@H]2O[C@H](CO[C@H]3O[C@H](CO)[C@@H](O)[C@@H]3O)[C@@H](O)[C@@H]2O)[C@@H](O)[C@@H]1O)C(F)(F)F [compound 5, α-Araf-(1→5)-α-Araf-(1→5)-α-Araf-octyl-NHCOCF3]",132 µM,
"COc1ccc(O[C@@H]2O[C@@H](C)[C@H](O)[C@@H](O[C@@H]3O[C@@H](C)[C@H](O)[C@@H](O[C@@H]4O[C@@H](C)[C@@H](OC)[C@@H](OC)[C@@H]4OC)[C@H]3O)[C@H]2O)cc1 [compound 12, 2,3,4-tri-O-CH3-α-Fucp-(1→3)-α-Rhap(1→3)-α-RhapOpPMP]",286 µM,
"O=C(NCCCCCCCCO[C@H]1O[C@H](CO[C@H]2O[C@H](CO[C@H]3O[C@H](CO)[C@@H](O)[C@@H]3O[C@@H]3O[C@H](CO[C@H]4O[C@H](CO)[C@@H](O)[C@H](O)[C@@H]4O[C@H]4O[C@H](CO)[C@@H](O)[C@H](O)[C@@H]4O)[C@@H](O)[C@@H]3O)[C@@H](O)[C@@H]2O)[C@@H](O)[C@@H]1O)C(F)(F)F [compound 2, α-Manp-(1→2)-α-Manp-(1→5)-β-Araf-(1→2)-α-Araf-(1→5)-α-Araf-(1→5)-α-Araf-octyl-NHCOCF3]",227 µM,
"6-O-CH3-β-Glcp-(1→4)-2,3-di-O-CH3-α-Rhap-(1→2)-3-O-CH3-α-RhapOPMP [compound 14]",,Association constants (Ka) for Gp6 (Gp6): NB^3
"COC[C@H]1O[C@@H](O[C@@H]2[C@@H](OC)[C@@H](OC)[C@H](O[C@H]3[C@H](Oc4ccc(OC)cc4)O[C@@H](C)[C@H](O)[C@H]3OC)O[C@H]2C)[C@H](O)[C@@H](OC)[C@@H]1O [compound 13, 3,6-di-O-CH3-β-Glcp-(1→4)-2,3-di-O-CH3-α-Rhap-(1→2)-3-O-CH3-α-RhapOPMP]",417 µM,
"Gp-31: recombinant His-tagged Gp-31 protein of mycobacteriophage L5 (SEQ ID NO: 5) (protein, His tag) MHHHHHHSSGLVPRGSGMKETAAAKFERQHMDSPDLGTDDDDKAMADIGSEFVTYPTNPLEAIGADGAFEIGGGDWSFGQDYTEQAIRALFTMPAVTMENALGLLEEHLLKLPLEALQGFKDMIPDWVEGAFDTVTGAVQAIMNALQDGPLFLKFAEFQLFLQRLLNNPAEVIGEIPQTLIDGLQDALNTVNNTIQTIVDMLLQALGITPEGELIDRIFDLSDEMEWLQTAASNAATGIQDTWNKFWGALTGRVPDQDQTVAEPAERIGELAGTTSANSSAIAELQRRLDNQQNAGGVAGGDDFERLNISGWDIRYSNGSSGRGYYRADGHQLVWMDEGNQQNTATFVRTNPADEKTATDYQKMTLVVGTISGEVQTVFPPQGGSHTRLWVRVNDNAPTVGITDGVFVEIGGVSKAQIGYRRNGNDTFVGSMVDCTWGAGSIFALTAGTANGAEKFEVSKNGPVLATWSDDGVVSAMGANYRRWGWEGQARNRNLGQGTPNSVTRVTITDNDPTGAGGGAVNVGGDVVGVLPIENGGTGASTASAARTALGIDDLVEDMSDVVRGSVEGLPLIPKIWVGTEAQYTALATKDQSTLYFRTA",,capture/binding of MAP cells (in words) [1]: no significant bacterial capture; capture/binding of M. smegmatis cells (in words) [2]: no significant bacterial capture
